Reference: patent US20240294508A1, “RIP1 MODULATORS INCLUDING AZETIDINE CYCLIC UREAS, PREPARATIONS, AND USES THEREOF” (SIRONAX LTD., priority 2021, published 2024)

Test system: HT-29 cells
Assay: HT29 cells 0FBS assay in vitro: TNF-α/SMAC mimetic/zVAD-FMK induced necroptosis, CellTiter-Glo cell viability (RIP1 inhibitory activity)
Assay type: cell-based
Conditions: Homo sapiens, FBS free medium, TNF-α (10 ng/ml) + SMAC mimetic (6 uM) + zVAD-FMK (10 μM), 20 hours, geometric mean EC50
How it was run: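 HT-29 cells (5,000/well, overnight) switched to FBS-free McCOY's 5A with TNF-α (10 ng/ml), SMAC mimetic (6 uM) and zVAD-FMK (10 μM) to drive necroptosis, plus compound, for 20 hours at 37° C. Viability read by CellTiter-Glo luminescence; geometric mean EC50 from 10-point duplicate dose-response.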

Row | SMILES | EC50 [nM]
1 | Cc1cnn(C)c1-c1ccc(F)c(OC2CN(C(=O)N3N=CC[C@H]3c3cc(F)cc(C#N)c3)C2)c1 [Compound 60, (S)-3-(1-(3-(5-(1,4-dimethyl-1H-pyrazol-5-yl)-2-fluorophenoxy)azetidine-1-carbonyl)-4,5-dihydro-1H-pyrazol-5-yl)-5-fluorobenzonitrile] | 0.1 to 100
2 | Cc1nscc1-c1cc(OC2CN(C(=O)N3N=CC[C@H]3c3cc(F)cc(C#N)c3)C2)c(F)cn1 [Compound 17, (S)-3-fluoro-5-(1-(3-((5-fluoro-2-(3-methylisothiazol-4-yl)pyridin-4-yl)oxy)azetidine-1-carbonyl)-4,5-dihydro-1H-pyrazol-5-yl)benzonitrile] | 0.1 to 100
3 | Cn1ncc(C#N)c1-c1ccc(F)c(OC2CN(C(=O)N3N=CC[C@H]3c3cc(F)cc(C#N)c3)C2)n1 [Compound 40, (S)-5-(6-((1-(5-(3-cyano-5-fluorophenyl)-4,5-dihydro-1H-pyrazole-1-carbonyl)azetidin-3-yl)oxy)-5-fluoropyridin-2-yl)-1-methyl-1H-pyrazole-4-carbonitrile] | 0.1 to 100
4 | Cc1nn(-c2cc(OC3CN(C(=O)N4N=CC[C@@H]4c4cc(F)cc(Cl)c4)C3)c(F)cn2)c(C)c1C(=O)O [Compound 141, (R)-1-(4-((1-(5-(3-chloro-5-fluorophenyl)-4,5-dihydro-1H-pyrazole-1-carbonyl)azetidin-3-yl)oxy)-5-fluoropyridin-2-yl)-3,5-dimethyl-1H-pyrazole-4-carboxylic acid] | 100 to 1000
5 | Cc1nn(CC2CC2)c(C)c1-c1cc(OC2CN(C(=O)N3N=CC[C@H]3c3cc(F)cc(C#N)c3)C2)c(F)cn1 [Compound 57, (S)-3-(1-(3-((2-(1-(cyclopropylmethyl)-3,5-dimethyl-1H-pyrazol-4-yl)-5-fluoropyridin-4-yl)oxy)azetidine-1-carbonyl)-4,5-dihydro-1H-pyrazol-5-yl)-5-fluorobenzonitrile] | 0.1 to 100
6 | Cc1cnn(C)c1-c1cc(OC2CN(C(=O)N3N=CCC3c3ncccc3Cl)C2)c(F)cn1 (centres unmarked) [Compound 93, (5-(3-chloropyridin-2-yl)-4,5-dihydro-1H-pyrazol-1-yl)(3-((2-(1,4-dimethyl-1H-pyrazol-5-yl)-5-fluoropyridin-4-yl)oxy)azetidin-1-yl)methanone] | 0.1 to 100
7 | Cc1c(N)nn(C)c1-c1ccc(F)c(OC2CN(C(=O)N3N=CC[C@H]3c3cncc(F)c3)C2)n1 [Compound 67, (S)-(3-((6-(3-amino-1,4-dimethyl-1H-pyrazol-5-yl)-3-fluoropyridin-2-yl)oxy)azetidin-1-yl)(5-(5-fluoropyridin-3-yl)-4,5-dihydro-1H-pyrazol-1-yl)methanone] | 0.1 to 100
8 | Cc1cc(F)cc([C@@H]2CC=NN2C(=O)N2CC(Oc3cc(-n4nc(C)c(C(=O)O)c4C)ncc3F)C2)c1 [Compound 142, (S)-1-(5-fluoro-4-((1-(5-(3-fluoro-5-methylphenyl)-4,5-dihydro-1H-pyrazole-1-carbonyl)azetidin-3-yl)oxy)pyridin-2-yl)-3,5-dimethyl-1H-pyrazole-4-carboxylic acid] | 0.1 to 100
9 | Cn1nccc1-c1ncc(F)c(OC2CN(C(=O)N3N=CC[C@H]3c3cc(F)cc(C#N)c3)C2)n1 [Compound 1, (S)-3-fluoro-5-(1-(3-((5-fluoro-2-(1-methyl-1H-pyrazol-5-yl)pyrimidin-4-yl)oxy)azetidine-1-carbonyl)-4,5-dihydro-1H-pyrazol-5-yl)benzonitrile] | 0.1 to 100
10 | Cc1ncc([C@@H]2CC=NN2C(=O)N2CC(Oc3cc(-c4c(C)cnn4C)ncc3F)C2)s1 [Compound 108, (S)-(3-((2-(1,4-dimethyl-1H-pyrazol-5-yl)-5-fluoropyridin-4-yl)oxy)azetidin-1-yl)(5-(2-methylthiazol-5-yl)-4,5-dihydro-1H-pyrazol-1-yl)methanone] | 0.1 to 100
11 | Cn1ccnc1-c1ccc(F)c(OC2CN(C(=O)N3N=CC[C@H]3c3cc(F)cc(C#N)c3)C2)n1 [Compound 13, (S)-3-fluoro-5-(1-(3-((3-fluoro-6-(1-methyl-1H-imidazol-2-yl)pyridin-2-yl)oxy)azetidine-1-carbonyl)-4,5-dihydro-1H-pyrazol-5-yl)benzonitrile] | 0.1 to 100
